Assay results: ChEMBL document CHEMBL4033675, “Identification of novel 1,2,3,6-tetrahydropyridyl-substituted benzo[d]thiazoles: Lead generation and optimization toward potent and orally active EP1 receptor antagonists” (Bioorg Med Chem, 2017)
The source made the active and inactive calls. The rule behind the calls is not given here.

biological target: T1, Prostaglandin E2 receptor EP1 subtype (Rattus norvegicus, UniProt P70597); assay: Antagonist activity at rat EP1 receptor expressed in African green monkey COS1 cells assessed as inhibition of prostaglandin-E2-induced increase in intracellular calcium level preincubated for 60 secs followed by prostaglandin-E2 addition measured for 60 secs by Fluo 4-AM dye based fluorescence assay; format: functional, cell-based; settings: not given
T1 sequence (P70597 whole entry): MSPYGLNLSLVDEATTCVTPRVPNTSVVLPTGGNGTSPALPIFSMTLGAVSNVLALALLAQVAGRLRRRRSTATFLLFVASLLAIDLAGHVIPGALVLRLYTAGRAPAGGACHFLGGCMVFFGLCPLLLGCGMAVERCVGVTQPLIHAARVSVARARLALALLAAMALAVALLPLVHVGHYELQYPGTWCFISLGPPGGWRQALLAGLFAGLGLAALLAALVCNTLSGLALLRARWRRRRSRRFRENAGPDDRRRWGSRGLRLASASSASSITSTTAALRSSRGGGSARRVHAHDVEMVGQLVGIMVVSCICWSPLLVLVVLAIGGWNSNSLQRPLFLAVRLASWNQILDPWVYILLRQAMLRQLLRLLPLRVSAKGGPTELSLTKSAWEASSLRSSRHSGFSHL

Going from `Cc1cc(C(=O)O)nn1Cc1cc(N)cc2sc(N3CC=CCC3)nc12` to `Cc1cc(C(=O)O)nn1Cc1cc(Cl)cc2sc(N3CC=CCC3)nc12`, the IC50 falls from 7800 nM to 1.1 nM (7100-fold). The second is the more potent here.

First: Cc1cc(C(=O)O)nn1Cc1cc(Cl)cc2sc(-c3ccccc3)nc12
Second: Cc1cc(C(=O)O)nn1Cc1cc(Cl)cc2nc(-c3ccccc3)sc12
The IC50 of the first is 260-fold lower: 31 nM for the first, 7950 nM for the second.

Going from `Cc1cc(C(=O)O)nn1Cc1cc(OC(F)(F)F)cc2sc(N3CC=CCC3)nc12` to `COc1cc(Cn2nc(C(=O)O)cc2C)c2nc(N3CC=CCC3)sc2c1`, the IC50 falls from 97 nM to 37 nM (2.6-fold).

Going from `O=C(O)c1ccc(Oc2cc(Cl)cc3sc(N4CC=CCC4)nc23)o1` to `O=C(O)c1ccc(Cc2cc(Cl)cc3sc(N4CC=CCC4)nc23)o1`, the IC50 falls from 150 nM to 60 nM (2.5-fold).

Going from `Cc1cc(C(=O)O)nn1Cc1cc(N(C)C)cc2sc(N3CC=CCC3)nc12` to `Cc1cc(Cn2nc(C(=O)O)cc2C)c2nc(N3CC=CCC3)sc2c1`, the IC50 rises from 210 nM to 2500 nM (12-fold). The first is the more potent here.

`Cc1cc(C(=O)O)nn1Cc1cc(Cl)cc2sc(N3CCCC3)nc12` and `Cc1cc(C(=O)O)nn1Cc1cc(Cl)cc2sc(N3CCCCC3)nc12` are within 1.5-fold of each other in IC50: 30 nM for the first, 43 nM for the second.

First: CC(=O)c1cc(Cn2nc(C(=O)O)cc2C)c2nc(N3CC=CCC3)sc2c1
Second: Cc1cc(C(=O)O)nn1Cc1cc(C(=O)O)cc2sc(N3CC=CCC3)nc12
The IC50 of the first is 40-fold lower: 200 nM for the first, 7900 nM for the second. The first is the more potent here.

Going from `CCN(CC)c1nc2c(Cn3nc(C(=O)O)cc3C)cc(Cl)cc2s1` to `CCCN(CC)c1nc2c(Cn3nc(C(=O)O)cc3C)cc(Cl)cc2s1`, the IC50 rises from 6.2 nM to 270 nM (44-fold).

First: Cc1cc(C(=O)O)nn1Cc1cc(Cl)cc2sc(N3CCOCC3)nc12
Second: Cc1cc(C(=O)O)nn1Cc1cc(Cl)cc2sc(N3CCC3)nc12
The IC50 of the first is 5.1-fold lower: 63 nM for the first, 320 nM for the second. The first is the more potent here.

First: Cc1cc(C(=O)O)nn1Cc1cccc2sc(N3CC=CCC3)nc12
Second: Cc1cc(C(=O)O)nn1Cc1cc(F)cc2sc(N3CC=CCC3)nc12
The IC50 of the first is 1.9-fold higher: 32 nM for the first, 17 nM for the second.

Compared with `Cc1cc(C(=O)O)nn1Cc1cc(Cl)cc2sc(N3CCCCCC3)nc12`, `Cc1cc(C(=O)O)nn1Cc1cc(Cl)cc2sc(N3CCSCC3)nc12` is 4.1-fold lower in IC50: 270 nM for the first, 66 nM for the second.

`Cc1cc(C(=O)O)nn1Cc1cc(Cl)cc2sc(N3CCN(C)CC3)nc12` and `Cc1cc(C(=O)O)nn1Cc1cc(Cl)cc2sc(N3CCS(=O)(=O)CC3)nc12` are within 1.5-fold of each other in IC50: 4900 nM for the first, 4200 nM for the second.

Compared with `CC1=CCN(c2nc3c(Cn4nc(C(=O)O)cc4C)cc(Cl)cc3s2)CC1`, `CC1=CCCN(c2nc3c(Cn4nc(C(=O)O)cc4C)cc(Cl)cc3s2)C1` is 2.1-fold lower in IC50: 64 nM for the first, 30 nM for the second.

Compared with `O=C(O)c1ccn(Cc2cc(Cl)cc3sc(N4CC=CCC4)nc23)c1`, `O=C(O)c1ccn(Cc2cc(Cl)cc3sc(N4CC=CCC4)nc23)n1` is 4.7-fold lower in IC50: 240 nM for the first, 51 nM for the second.

Compared with `Cc1cc(C(=O)O)nn1Cc1cc(Cl)cc2sc(C3CCCCC3)nc12`, `Cc1cc(C(=O)O)nn1Cc1cc(Cl)cc2sc(C3=CCCCC3)nc12` is 3.9-fold lower in IC50: 430 nM for the first, 110 nM for the second.

Going from `Cc1cc(C(=O)O)nn1Cc1cc(Cl)cc2oc(-c3ccccc3)nc12` to `Cc1cc(C(=O)O)nn1Cc1cc(Cl)cc2nc(-c3ccccc3)oc12`, the IC50 falls from 8700 nM to 750 nM (12-fold). The second is the more potent here.

First: Cc1cc(C(=O)O)nn1Cc1cc(Cl)cc2sc(N(C)C)nc12
Second: CCN(C)c1nc2c(Cn3nc(C(=O)O)cc3C)cc(Cl)cc2s1
The IC50 of the first is 7.7-fold higher: 100 nM for the first, 13 nM for the second. The second is the more potent here.

Compared with `Cc1cc(C(=O)O)nn1Cc1cc(Cl)cc2sc(N3CC=CC3)nc12`, `Cc1cc(C(=O)O)nn1Cc1cc(Br)cc2sc(N3CC=CCC3)nc12` is 5-fold lower in IC50: 110 nM for the first, 22 nM for the second. The second is the more potent here.

Compared with `O=C(O)c1ccc(Sc2cc(Cl)cc3sc(N4CC=CCC4)nc23)o1`, `Cc1cc(C(=O)O)nn1Cc1cc(C#N)cc2sc(N3CC=CCC3)nc12` is 36-fold higher in IC50: 6.4 nM for the first, 230 nM for the second. The first is the more potent here.

First: C=Cc1cc(Cn2nc(C(=O)O)cc2C)c2nc(N3CC=CCC3)sc2c1
Second: C=C(C)c1cc(Cn2nc(C(=O)O)cc2C)c2nc(N3CC=CCC3)sc2c1
The IC50 of the first is 16-fold lower: 9.9 nM for the first, 160 nM for the second.

First: CC1=C(C)CN(c2nc3c(Cn4nc(C(=O)O)cc4C)cc(Cl)cc3s2)CC1
Second: CNc1nc2c(Cn3nc(C(=O)O)cc3C)cc(Cl)cc2s1
The IC50 of the first is 11-fold higher: 5200 nM for the first, 470 nM for the second.

First: C=C(C)c1nc2c(Cn3nc(C(=O)O)cc3C)cc(Cl)cc2s1
Second: CNc1cc(Cn2nc(C(=O)O)cc2C)c2nc(N3CC=CCC3)sc2c1
The IC50 of the first is 270-fold lower: 33 nM for the first, 8800 nM for the second. The first is the more potent here.

test system: Rattus norvegicus; assay: Inhibition of 17-PTP-induced increase in intravesical pressure in intraduodenally dosed rat overactive bladder model pretreated for 5 mins followed by 17-PTP treatment with 30 mins time interval for 245 mins; format: functional, organism-based; settings: not given

For `Cc1cc(C(=O)O)nn1Cc1cc(Cl)cc2sc(-c3ccccc3)nc12`, the inhibition was “inactive”.
With `Cc1cc(C(=O)O)nn1Cc1cc(Cl)cc2sc(N3CC=CCC3)nc12` the inhibition was “Dose-dependent effect”.

test system: not listed separately; assay: Half life in rat at 1 mg/kg, iv; format: ADME, organism-based; settings: in vivo

Molecule `Cc1cc(C(=O)O)nn1Cc1cc(Cl)cc2sc(N3CC=CCC3)nc12` has a half-life of 40.7 min.

test system: not listed separately; assay: AUC (0 to infinity) in rat at 1 mg/kg, iv; format: ADME, organism-based; set-up: dose 1 mg/kg, time infinity, route intravenous; settings: in vivo

With `Cc1cc(C(=O)O)nn1Cc1cc(Cl)cc2sc(N3CC=CCC3)nc12` the AUC(0-inf) was 4480 ng·h/mL.

test system: not listed separately; assay: Volume of distribution in rat at 1 mg/kg, iv; format: ADME, organism-based; settings: in vivo

`Cc1cc(C(=O)O)nn1Cc1cc(Cl)cc2sc(N3CC=CCC3)nc12` gave a Vd of 0.184 L/kg.

test system: not listed separately; assay: Total clearance in rat at 1 mg/kg, iv; format: ADME, organism-based; settings: in vivo

For `Cc1cc(C(=O)O)nn1Cc1cc(Cl)cc2sc(N3CC=CCC3)nc12`, the clearance was 3.79 mL/min/kg.

test system: not listed separately; assay: Initial concentration in rat at 1 mg/kg, iv; format: ADME, organism-based; settings: in vivo

In the case of `Cc1cc(C(=O)O)nn1Cc1cc(Cl)cc2sc(N3CC=CCC3)nc12`, the C0 is reported as 6000 ng/mL.

test system: not listed separately; assay: Chemical stability of the compound in pH 1 acidic aqueous medium; format: physicochemical; settings: buffer

In the case of `Cc1cc(C(=O)O)nn1Cc1cc(Cl)cc2sc(N3CC=CCC3)nc12`, the Stability is reported as “Stable”.
